Test results as given in patent publication US9340493B2, “Hydroxamic acid derivatives useful as antibacterial agents” (Pfizer Inc., priority 2008, dated 2016).
In brackets after ≈: the same amount, converted by molar mass.

Columns and labels:
P. aeruginosa PAO280 = assay: MIC determination, P. aeruginosa PAO280; assay type: cell-based; settings: Pseudomonas aeruginosa, PAO280, read-out: MIC (ug/mL) P. aeruginosa PAO280
Experimental: (§1) MIC determinations: The in vitro antibacterial activity of compounds described in the Examples was evaluated by minimum inhibitory concentration (MIC) testing according to Clinical and Laboratory Standards Institute (CLSI, formerly NCCLS) guidelines. See: Clinical and Laboratory Standards Institute. Methods for Dilution Antimicrobial Susceptibility Tests for Bacteria that Grow Aerobically; Approved Standard-Seventh Edition. CLSI document M7-A7 [ISBN 1-56238-587-9]. Clinical and Laboratory Standards Institute, 940 West Valley Road, Suite 1400, Wayne, Pa. 19087-1898 USA, 2006; also Clinical and Laboratory Standards Institute. Performance Standards for Antimicrobial Susceptibility Testing; Eighteenth Informational Supplement. CLSI document M100-S18 [ISBN1-56238-653-0]. Clinical and Laboratory Standards Institute.
(§2) The following bacterial strains were used:
Pseudomonas aeruginosa PA0280: lacks efflux pumps MexAB-oprM, MexXY and MexZ

[1] = test system: Acinetobacter baumanii/haemolyticus; assay: MIC determination, A. baumanii/haemolyticus; assay type: cell-based; settings: Acinetobacter baumannii; multidrug-resistant clinical isolate; * = arithmetic mean of 2-6 MIC determinations; read-out: MIC (ug/mL) A. baumanii/haemolyticus
Experimental: as §1, §2
Acinetobacter baumanii/haemolyticus: Multidrug-resistant clinical isolate;

P. aeruginosa UI-18 = assay: MIC determination, P. aeruginosa UI-18; assay type: cell-based; settings: Pseudomonas aeruginosa, UI18; wild-type; * = arithmetic mean of 2-6 MIC determinations; read-out: MIC (ug/mL) P. aeruginosa UI-18
Experimental: as §1, §2
P. aeruginosa UI-18: Wild-type;

Klebsiella pneumoniae = assay: MIC determination, K. pneumoniae; assay type: cell-based; settings: ciprofloxacin-resistant, ESBL-expressing clinical isolate, * = arithmetic mean of 2-6 MIC determinations, read-out: MIC (ug/mL) K. pneumoniae
Experimental: as §1, §2
Klebsiella pneumoniae: Ciprofloxacin-resistant isolate, expresses extended-spectrum beta-lactamases (ESBL), clinical isolate;

Escherichia coli EC-1 = assay: MIC determination, E. coli EC-1; assay type: cell-based; settings: EC1, EC-1: VOGEL, * = arithmetic mean of 2-6 MIC determinations, read-out: MIC (ug/mL) E. coli EC-1
Experimental: as §1, §2
Escherichia coli EC-1: VOGEL;

Enterobacter aerogenes = assay: MIC determination, E. aerogenes; assay type: cell-based; settings: Klebsiella aerogenes; quinolone-resistant, ESBL-expressing clinical isolate; * = arithmetic mean of 2-6 MIC determinations; read-out: MIC (ug/mL) E. aerogenes
Experimental: as §1, §2
Enterobacter aerogenes: Quinolone-resistant isolate, expresses extended-spectrum beta-lactamases (ESBL), clinical isolate;

[2] = target: T1, Pseudomonas aeruginosa LpxC enzyme (Pseudomonas aeruginosa, UniProt P47205); assay: IC50 assay, LpxC enzyme from P. aeruginosa; assay type: biochemical; settings: 0.5 nM enzyme, 25° C., pH 8.0, 20 min; ** = average of 2-8 assays
T1 construct: made in house; host or cells: E. coli
T1 sequence (P47205 1-303): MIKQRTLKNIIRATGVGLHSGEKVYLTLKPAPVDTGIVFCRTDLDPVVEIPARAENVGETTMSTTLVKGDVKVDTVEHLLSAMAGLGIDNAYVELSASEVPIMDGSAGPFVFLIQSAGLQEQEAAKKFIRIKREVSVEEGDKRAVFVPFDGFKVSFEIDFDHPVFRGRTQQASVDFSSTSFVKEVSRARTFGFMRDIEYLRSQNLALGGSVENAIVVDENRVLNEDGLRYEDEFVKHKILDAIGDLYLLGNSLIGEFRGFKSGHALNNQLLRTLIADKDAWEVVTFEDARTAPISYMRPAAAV
Experimental: IC50 assay, LpxC enzyme from P. aeruginosa: IC50 determination in the LpxC enzyme assay was carried out in a similar manner to that described by S. A. Hyland et al., J. Bacteriology 1997, 179, 2029-2037. [See also T. Kline et al., J. Medicinal Chemistry 2002, 45, 3112-3129.] Briefly, Pseudomonas aeruginosa LpxC enzyme (0.5 nM) purified from E. coli-overexpressing bacteria was incubated at 25° C. in a final volume of 25 ul containing 0.5 uM UDP-3-O—(R-3-hydroxydecanoyl)-N—[^3H-acetyl]glucosamine (B. D. Maxwell and J. C. Bronstein, J. Labeled Compounds and Radiopharmaceuticals 2005, 48, 1049-1054), 1 mg/ml BSA, and 50 mM sodium phosphate buffer, pH 8.0 in the presence and absence of inhibitor compound. At the end of 20 min, 90 ul of a pre-mixed 3% suspension of activated charcoal in 100 mM sodium acetate, pH 7.5, was added to stop the enzyme reaction. The contents of the well were transferred to a filter plate and filtered, and an aliquot of the filtrate was quantitated by liquid scintillation spectrometry. A no-enzyme control was subtracted in order to eliminate background counts.

[3] = test system: Staphylococcus aureus ATCC 29213; assay: MIC determination, S. aureus ATCC 29213; assay type: cell-based; settings: ATCC29213, CLSI quality control reference strain, * = arithmetic mean of 2-6 MIC determinations, read-out: MIC (ug/mL) S. aureus ATCC 29213
Experimental: as §1, §2
Staphylococcus aureus ATCC 29213: CLSI quality control reference strain; and […]

Structure (SMILES) | MIC (P. aeruginosa PAO280) | MIC [1] | MIC (P. aeruginosa UI-18) | MIC (Klebsiella pneumoniae) | MIC (Escherichia coli EC-1) | MIC (Enterobacter aerogenes) | IC50 [2] | MIC [3]
C[C@@](OCc1ccc(-c2ccccc2)cc1)(C(=O)NO)[C@@H](O)c1cncs1 [Example 21, (2S,3R)-2-(biphenyl-4-ylmethoxy)-N,3-dihydroxy-2-methyl-3-(1,3-thiazol-5-yl)propanamide] | 4 µg/mL (≈ 10.4 µM) | > 64 µg/mL | > 64 µg/mL | > 64 µg/mL | > 64 µg/mL | > 64 µg/mL | 0.00823 µM | > 64 µg/mL
C[C@@](OCc1ccc(-c2ccccc2)cc1)(C(=O)NO)[C@@H](O)c1ccoc1 [Example 22, (2S,3S)-2-(biphenyl-4-ylmethoxy)-3-(3-furyl)-N,3-dihydroxy-2-methylpropanamide] | 4 µg/mL (≈ 10.9 µM) | > 8 µg/mL | > 8 µg/mL | > 8 µg/mL | > 8 µg/mL | > 8 µg/mL | 0.0105 µM | > 8 µg/mL
Cc1cc([C@H](O)[C@](C)(OCc2ccc(-c3ccccc3)cc2)C(=O)NO)no1 [Example 23, (2S,3S)-2-(biphenyl-4-ylmethoxy)-N,3-dihydroxy-2-methyl-3-(5-methylisoxazol-3-yl)propanamide] | 0.015 µg/mL (≈ 0.0392 µM) | 4 µg/mL (≈ 10.5 µM) | 1.75 µg/mL (≈ 4.58 µM) | 8 µg/mL (≈ 20.9 µM) | 4 µg/mL (≈ 10.5 µM) | 27 µg/mL (≈ 70.6 µM) | 0.000376 µM | > 64 µg/mL
COCc1ccc([C@H](O)[C@](C)(OCc2ccc(-c3ccccc3)cc2)C(=O)NO)o1 [Example 24, (2S,3S)-2-(biphenyl-4-ylmethoxy)-N,3-dihydroxy-3-[5-(methoxymethyl)-2-furyl]-2-methylpropanamide] | 2 µg/mL (≈ 4.86 µM) | > 64 µg/mL | 32 µg/mL (≈ 77.8 µM) | > 64 µg/mL | > 64 µg/mL | > 64 µg/mL | 0.00128 µM | > 64 µg/mL
C[C@@](OCc1ccc(-c2ccccc2)cc1)(C(=O)NO)[C@@H](O)c1cn2ccccc2n1 [Example 25, (2S,3S)-2-(biphenyl-4-ylmethoxy)-N,3-dihydroxy-3-imidazo[1,2-a]pyridin-2-yl-2-methylpropanamide] | 0.03 µg/mL (≈ 0.0719 µM) | 32 µg/mL (≈ 76.7 µM) | 1.67 µg/mL (≈ 4 µM) | 4 µg/mL (≈ 9.58 µM) | 3 µg/mL (≈ 7.19 µM) | 16 µg/mL (≈ 38.3 µM) | 0.00138 µM | > 64 µg/mL
CCCc1ccc(-c2ccc(CO[C@](C)(C(=O)NO)[C@@H](O)c3cn4ccccc4n3)cc2)cc1 [Example 26, (2S,3S)-N,3-dihydroxy-3-imidazo[1,2-a]pyridin-2-yl-2-methyl-2-[(4′-propylbiphenyl-4-yl)methoxy]propanamide] | 2 µg/mL (≈ 4.35 µM) | 1 µg/mL (≈ 2.18 µM) | 8 µg/mL (≈ 17.4 µM) | 4 µg/mL (≈ 8.7 µM) | 1 µg/mL (≈ 2.18 µM) | 8 µg/mL (≈ 17.4 µM) | 0.00137 µM | 32 µg/mL (≈ 69.6 µM)
Cc1nc([C@H](O)[C@](C)(OCc2ccc(-c3ccccc3)cc2)C(=O)NO)c(C)o1 [Example 27, (2S,3S)-2-(biphenyl-4-ylmethoxy)-3-(2,5-dimethyl-1,3-oxazol-4-yl)-N,3-dihydroxy-2-methylpropanamide] | 16 µg/mL (≈ 40.4 µM) | > 64 µg/mL | > 64 µg/mL | > 64 µg/mL | > 64 µg/mL | > 64 µg/mL | 0.0652 µM | > 64 µg/mL
C[C@@](OCc1ccc(-c2ccccc2)cc1)(C(=O)NO)[C@@H](O)c1cc(-c2ccccc2)on1 [Example 28, (2S,3S)-2-(biphenyl-4-ylmethoxy)-N,3-dihydroxy-2-methyl-3-(5-phenylisoxazol-3-yl)propanamide] | 4 µg/mL (≈ 9 µM) | 8 µg/mL (≈ 18 µM) | 8 µg/mL (≈ 18 µM) | > 16 µg/mL | 8 µg/mL (≈ 18 µM) | > 16 µg/mL | 0.00143 µM | 16 µg/mL (≈ 36 µM)
